Target: human APJ receptor (Homo sapiens (Human), UniProt P35414)
Test: [35S]GTPγS binding assay on membranes from CHO cells stably expressing human APJ receptor
Format: biochemical
Details: read-out: Activity hAPJ SPA EC50 IP
Procedure, shortened: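 Agonist-driven [35S]GTPγS (0.2 nM) binding was measured over 90 min at room temperature on human APJ-expressing CHO membranes with bead capture, in buffer containing 3 μM GDP, 200 mM NaCl and 5 mM MgCl2 (pH 7.5). Excess unlabelled GTPγS (100 μM) gave nonspecific signal; EC50 from non-linear fits.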

Sequence of human APJ receptor (P35414 whole entry): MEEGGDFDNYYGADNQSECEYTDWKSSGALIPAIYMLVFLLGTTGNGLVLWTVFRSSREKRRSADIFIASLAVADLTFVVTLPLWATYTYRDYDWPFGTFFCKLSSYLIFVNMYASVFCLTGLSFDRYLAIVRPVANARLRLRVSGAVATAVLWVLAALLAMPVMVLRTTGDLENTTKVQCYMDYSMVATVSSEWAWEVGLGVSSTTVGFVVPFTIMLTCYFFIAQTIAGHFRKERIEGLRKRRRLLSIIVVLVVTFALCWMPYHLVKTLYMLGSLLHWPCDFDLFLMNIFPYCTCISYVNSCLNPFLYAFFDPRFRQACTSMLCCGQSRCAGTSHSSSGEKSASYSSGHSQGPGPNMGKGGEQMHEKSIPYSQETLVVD

Row | SMILES | EC50
1 | COc1cccc(OC)c1-n1c(NS(=O)(=O)CCc2ccc(Cl)cc2)nnc1[C@@H]1CCCO1 (single isomer, unassigned) [Example 144.0, (S)-2-(4-Chlorophenyl)-N-(4-(2,6-dimethoxyphenyl)-5-(tetrahydrofuran-2-yl)-4H-1,2,4-triazol-3-yl)ethanesulfonamide or (R)-2-(4-chlorophenyl)-N-(4-(2,6-dimethoxyphenyl)-5-(tetrahydrofuran-2-yl)-4H-1,2,4-triazol-3-yl)ethanesulfonamide] | 80 nM
2 | COc1cccc(OC)c1-n1c(NS(=O)(=O)CCc2ccc(Cl)cc2)nnc1[C@@H]1CCCO1 (single isomer, unassigned) [Example 145.0, (S)-2-(4-Chlorophenyl)-N-(4-(2,6-dimethoxyphenyl)-5-(tetrahydrofuran-2-yl)-4H-1,2,4-triazol-3-yl)ethanesulfonamide or (R)-2-(4-chlorophenyl)-N-(4-(2,6-dimethoxyphenyl)-5-(tetrahydrofuran-2-yl)-4H-1,2,4-triazol-3-yl)ethanesulfonamide] | 830 nM
3 | COc1cccc(OC)c1-n1c(NS(=O)(=O)CCc2ccc(F)cc2C#N)nnc1[C@@H]1CCCO1 (single isomer, unassigned) [Example 147.0, (S)-2-(2-Cyano-4-fluorophenyl)-N-(4-(2,6-dimethoxyphenyl)-5-(tetrahydrofuran-2-yl)-4H-1,2,4-triazol-3-yl)ethanesulfonamide or (R)-2-(2-cyano-4-fluorophenyl)-N-(4-(2,6-dimethoxyphenyl)-5-(tetrahydrofuran-2-yl)-4H-1,2,4-triazol-3-yl)ethanesulfonamide] | 37 nM
4 | COc1cccc(OC)c1-n1c(NS(=O)(=O)CCc2ccc(F)cc2C#N)nnc1[C@@H]1CCCO1 (single isomer, unassigned) [Example 148.0, (S)-2-(2-Cyano-4-fluorophenyl)-N-(4-(2,6-dimethoxyphenyl)-5-(tetrahydrofuran-2-yl)-4H-1,2,4-triazol-3-yl)ethanesulfonamide or (R)-2-(2-cyano-4-fluorophenyl)-N-(4-(2,6-dimethoxyphenyl)-5-(tetrahydrofuran-2-yl)-4H-1,2,4-triazol-3-yl)ethanesulfonamide] | 680 nM
5 | COc1cccc(OC)c1-n1c(NS(=O)(=O)[C@@H](C)[C@H](C)c2ncc(C#N)cn2)nnc1[C@H]1CCOC1 (single isomer, unassigned) [Example 173.0, (2S,3R)-3-(5-cyano-2-pyrimidin-yl)-N-(4-(2,6-dimethoxyphenyl)-5-((3R)-tetrahydro-3-furanyl)-4H-1,2,4-triazol-3-yl)-2-butanesulfonamide or (2S,3R)-3-(5-cyano-2-pyrimidinyl)-N-(4-(2,6-dimethoxyphenyl)-5-((3S)-tetrahydro-3-furanyl)-4H-1,2,4-triazol-3-yl)-2-butanesulfonamide] | 130 nM
6 | COc1cccc(OC)c1-n1c(NS(=O)(=O)[C@@H](C)[C@H](C)c2ncc(C#N)cn2)nnc1[C@H]1CCOC1 (single isomer, unassigned) [Example 174.0, (2S,3R)-3-(5-cyano-2-pyrimidin-yl)-N-(4-(2,6-dimethoxyphenyl)-5-((3R)-tetrahydro-3-furanyl)-4H-1,2,4-triazol-3-yl)-2-butanesulfonamide or (2S,3R)-3-(5-cyano-2-pyrimidinyl)-N-(4-(2,6-dimethoxyphenyl)-5-((3S)-tetrahydro-3-furanyl)-4H-1,2,4-triazol-3-yl)-2-butanesulfonamide] | 210 nM
7 | COc1cnc([C@@H](C)[C@H](C)S(=O)(=O)Nc2nnc([C@@H]3COCCO3)n2-c2c(OC)cccc2OC)nc1 (single isomer, unassigned) [Example 175.0, (2S,3R)-N-(4-(2,6-dimethoxyphenyl)-5-((2R)-1,4-dioxan-2-yl)-4H-1,2,4-triazol-3-yl)-3-(5-methoxy-2-pyrimidinyl)-2-butanesulfonamide or (2S,3R)-N-(4-(2,6-dimethoxyphenyl)-5-((2S)-1,4-dioxan-2-yl)-4H-1,2,4-triazol-3-yl)-3-(5-methoxy-2-pyrimidinyl)-2-butanesulfonamide] | 3.5 nM
8 | COc1cnc([C@@H](C)[C@H](C)S(=O)(=O)Nc2nnc([C@@H]3COCCO3)n2-c2c(OC)cccc2OC)nc1 (single isomer, unassigned) [Example 176.0, (2S,3R)-N-(4-(2,6-dimethoxyphenyl)-5-((2R)-1,4-dioxan-2-yl)-4H-1,2,4-triazol-3-yl)-3-(5-methoxy-2-pyrimidinyl)-2-butanesulfonamide or (2S,3R)-N-(4-(2,6-dimethoxyphenyl)-5-((2S)-1,4-dioxan-2-yl)-4H-1,2,4-triazol-3-yl)-3-(5-methoxy-2-pyrimidinyl)-2-butanesulfonamide] | 34 nM
9 | COc1cnc([C@@H](C)[C@H](C)S(=O)(=O)Nc2nnc([C@@H]3COCCO3)n2-c2c(OC)ncnc2OC)nc1 (single isomer, unassigned) [Example 177.0, (2S,3R)-N-(4,-(4,6-dimethoxy-5-pyrimidinyl)-5-((2R)-1,4-dioxan-2-yl)-4H-1,2,4-triazol-3-yl)-3-(5-methoxy-2-pyrimidinyl)-2-butanesulfonamide or (2S,3R)-N-(4-(4,6-dimethoxy-5-pyrimidinyl)-5-((2S)-1,4-dioxan-2-yl)-4H-1,2,4-triazol-3-yl)-3-(5-methoxy-2-pyrimidinyl)-2-butanesulfonamide] | 95 nM
10 | COc1cnc([C@@H](C)[C@H](C)S(=O)(=O)Nc2nnc([C@@H]3COCCO3)n2-c2c(OC)ncnc2OC)nc1 (single isomer, unassigned) [Example 178.0, (2S,3R)-N-(4-(4,6-dimethoxy-5-pyrimidinyl)-5-((2R)-1,4-dioxan-2-yl)-4H-1,2,4-triazol-3-yl)-3-(5-methoxy-2-pyrimidinyl)-2-butanesulfonamide or (2S,3R)-N-(4-(4,6-dimethoxy-5-pyrimidinyl)-5-((2S)-1,4-dioxan-2-yl)-4H-1,2,4-triazol-3-yl)-3-(5-methoxy-2-pyrimidinyl)-2-butanesulfonamide] | 290 nM
11 | COc1ncnc(OC)c1-n1c(NS(=O)(=O)[C@@H](C)[C@H](C)c2ncc(Cl)cn2)nnc1[C@@H]1CCCCO1 (single isomer, unassigned) [Example 191.0, (2S,3R)-3-(5-chloropyrimidin-2-yl)-N-(4-(4,6-dimethoxypyrimidin-5-yl)-5-((S)-tetrahydro-2H-pyran-2-yl)-4H-1,2,4-triazol-3-yl)butane-2-sulfonamide or (2S,3R)-3-(5-chloropyrimidin-2-yl)-N-(4-(4,6-dimethoxypyrimidin-5-yl)-5-((R)-tetrahydro-2H-pyran-2-yl)-4H-1,2,4-triazol-3-yl)butane-2-sulofnamide] | 4.1 nM
12 | COc1ncnc(OC)c1-n1c(NS(=O)(=O)[C@@H](C)[C@H](C)c2ncc(Cl)cn2)nnc1[C@@H]1CCCCO1 (single isomer, unassigned) [Example 192.0, (2S,3R)-3-(5-chloropyrimidin-2-yl)-N-(4-(4,6-dimethoxypyrimidin-5-yl)-5-((S)-tetrahydro-2H-pyran-2-yl)-4H-1,2,4-triazol-3-yl)butane-2-sulfonamide or (2S,3R)-3-(5-chloropyrimidin-2-yl)-N-(4-(4,6-dimethoxypyrimidin-5-yl)-5-((R)-tetrahydro-2H-pyran-2-yl)-4H-1,2,4-triazol-3-yl)butane-2-sulfonamide] | 1 nM
